Data published in patent US5952335A, “Fused polycyclic heterocycle derivatives” (Eisai Co., Ltd., priority 1995, dated 1999).
Structures can show the parent of a compound that is named as a salt.

test system: P388 cells; assay: in vitro Antitumor Test on P388 Cells (Mouse Leukemic Cells), MTT, 3 days; assay type: cell-based; conditions: 72 h, 3 days incubation
Method: P388 cells suspended in RPMI1640 medium (manufactured by Sanko Junyaku) containing 10% of fetal calf serum, (100 U/ml) of penicillin, 100 μg/ml of streptomycin, 5×10^-5 M of mercaptoethanol and 1 mM of sodium pyruvate were pipetted into a 96-well U-bottomed microplate at a ratio of 1.25×10^3 cells (0.1 ml) per well and incubated in a incubator containing 5% of carbon dioxide at 37° C. for a day. A compound of the present invention was dissolved in dimethyl sulfoxide to give a concentration of 10^-2 M and then diluted with the 10% fetal calf serum-containing RPMI1640 culture medium to give a concentration of 10^-4 or 10^-5 M. By taking this concentration as the maximal level, threefold serial dilution was effected with the use of the 10% fetal calf serum-containing RPMI1640 culture medium. Then these dilutions were added to the P388 incubation plate as described above at a ratio of 0.1 ml per well followed by incubation in an incubator containing 5% of carbon dioxide at 37° C. for 3 days. After the completion of the incubation, 0.05 ml/well of a 3.3 mg/ml solution of MTT [3-(4,5-dimethylthiazol-2-yl)-2,5-diphenyltetrazolium bromide] was added thereto and the incubation was continued for additional 2 hours. The microplate was centrifuged and the supernatant was aspirated off from each well. Then the formazan thus formed was dissolved in 0.1 ml of dimethyl sulfoxide and the absorbance thereof at 540 nm measured with a microplate reader was taken as an indication of the viable cell count. In accordance with the following formula, the inhibitory ratio was calculated and the 50% inhibitory concentration (IC50) of the test compound was determined: [formula] wherein T means the absorbance of a well containing the test compound; and C means the absorbance of a well containing no test compound.

Row | IC50 [nM] | Compound
1 | 490 | CN(C)CCn1c(=O)c2cc([N+](=O)[O-])cc3c2n(c1=O)-c1cc2ccccc2cc1O3 [Example 27, 2-[2-(Dimethylamino)ethyl]-5-nitro-1H-benzo[b]pyrimido [5,6,1-kl]phenoxazine-1,3(2H)-dione hydrochloride]
2 | 300 | CN(C)CCn1c(=O)c2cc(O)cc3c4c5ccccc5ccc4n(c1=O)c23 [Example 53, 5-[2-[Dimethylamino)ethyl]-2-hydroxy-4H-benzo[c]pyrimido [5,6,1-jk]carbazole-4,6(5H)-dione hydrochloride]
3 | 28 | CN(C)CCn1c(=O)c2cccc3c4c5c(ccc4n(c1=O)c23)C(=O)OCC5 [Example 25, 1,2-Dihydro-9-[2-(dimethylamino)ethyl]-4H,8H-pyrano[3,4-c]pyrimido[5,6,1-jk]carbazole-4,8,10(9H)-trione hydrochloride]
4 | 4.8 | CN(C)CCn1c(=O)c2cccc3c4c5c(ccc4n(c1=O)c23)C(O)CCC5 (centres unmarked) [Example 5, 5-[2-(Dimethylamino)ethyl]-10-hydroxy-10,11,12,13-tetrahydro-4H-benzo[c]pyrimido[5,6,1-jk]carbazole-4,6(5H)-dione]
5 | 32 | CN(C)CCn1c(=O)c2cccc3c4c5ccccc5ncc4n(c1=O)c23 [Example 30, 5-[2-(Dimethylamino)ethyl]-4H-quino[4',3'-4,5]pyrrolo [3,2,1-ij]quinazoline-4,6(5H)-dione dihydrochloride]
6 | 30 | CN(C)CCn1c(=O)c2cccc3c4c5ccc(N)cc5ccc4n(c1=O)c23 [Example 49, 11-Amino-5-[2-(dimethylamino)ethyl]-4H-benzo[c]pyrimido [5,6,1-jk]carbazole-4,6(5H)-dione dihydrochloride]
7 | 81 | COc1cccc2c1ccc1c2c2cccc3c(=O)n(CCN(C)C)c(=O)n1c32 [Example 23, 5-[2-(Dimethylamino)ethyl]-10-methoxy-4H-benzo[c]pyrimido[5,6,1-jk]carbazole-4,6(5H)-dione hydrochloride]
8 | 110 | CN(C)CCn1c(=O)c2cc(N)cc3c2n(c1=O)-c1cc2ccccc2cc1O3 [Example 31, 5-Amino-2-[2-(dimethylamino)ethyl]-1H-benzo[b]pyrimido [5,6,1-kl]phenoxazine-1,3(2H)-dione dihydrochloride]
9 | 160 | COc1cc2c(=O)n(CCN(C)C)c(=O)n3c4ccc5ccccc5c4c(c1)c23 [Example 45, 5-[2-(Dimethylamino)ethyl]-2-methoxy-4H-benzo[c]pyrimido [5,6,1-jk]carbazole-4,6(5H)-dione hydrochloride]
10 | 80 | COc1cccc2c1ccc1c3cccc4c(=O)n(CCN(C)C)c(=O)n(c43)c21 [Example 54, 2-[2-(Dimethylamino)ethyl]-9-methoxy-1H-benzo[a]pyrimido [5,6,1-jk]carbazole-1,3(2H)-dione hydrochloride]
11 | 49 | CN(C)CCn1c(=O)c2cccc3c4cc5ccccc5cc4n(c1=O)c23 [Example 42, 2-[2-(Dimethylamino)ethyl]-1H-benzo[b]pyrimido[5,6,1-jk]carbazole-1,3(2H)-dione hydrochloride]
12 | 360 | CN(C)CCn1c(=O)c2cccc3c4c5c(ccc4n(c1=O)c23)C(=O)C(C)(C)CC5 [Example 44, 12,13-Dihydro-11,11-dimethyl-5-[2-(dimethylamino)ethyl]-4H-benzo[c]pyrimido[5,6,1-jk]carbazole-4,6,10(5H,11H)-trione hydrochloride]
13 | 410 | COc1cccc2ccc3c(c4cccc5c(=O)n(CCN(C)C)c(=O)n3c54)c12 [Example 32, 5-[2-(Dimethylamino)ethyl]-13-methoxy-4H-benzo[c]pyrimido [5,6,1-jk]carbazole-4,6(5H)-dione hydrochloride]
14 | 350 | Cc1ccc(S(=O)(=O)Nc2ccc3c(ccc4c3c3cccc5c(=O)n(CCN(C)C)c(=O)n4c53)c2)cc1 [Example 48, 5-[2-(Dimethylamino)ethyl]-11-(4-methylbenzenesulfonamido)-4H-benzo[c]pyrimido[5,6,1-jk]carbazole-4,6(5H)-dione hydrochloride]
15 | 7.1 | CC(=O)Nc1ccc2c(ccc3c2c2cccc4c(=O)n(CCN(C)C)c(=O)n3c42)c1 [Example 50, 11-Acetamido-5-[2-(dimethylamino)ethyl]-4H-benzo[c]pyrimido[5,6,1-jk]carbazole-4,6(5H)-dione hydrochloride]
16 | 320 | CN(C)CCn1c(=O)c2cccc3c4c5ccc(Br)cc5ccc4n(c1=O)c23 [Example 41, 11-Bromo-5-[2-(dimethylamino)ethyl]-4H-benzo[c]pyrimido [5,6,1-jk]carbazole-4,6(5H)-dione hydrochloride]

Row | IC50 [nM] | Compound
17 | 76 | CN(C)CCn1c(=O)c2cccc3c4ccc5ccccc5c4n(c1=O)c23 [Example 18, 2-[2-(Dimethylamino)ethyl]-1H-benzo[a]pyrimido[5,6,1-jk]carbazole-1,3(2H)-dione hydrochloride]
18 | 1.7 | CN(C)CCn1c(=O)c2cccc3c4c5c(ccc4n(c1=O)c23)C(O)CCC5 (single isomer, unassigned; (+)) [Example 6, (+)-5-[2-(Dimethylamino)ethyl]-10-hydroxy-10,11,12,13-tetrahydro-4H-benzo[c]pyrimido[5,6,1-jk]carbazole-4,6(5H)-dione]
19 | 66 | CN(C)CCn1c(=O)c2cccc3c4c5c(ccc4n(c1=O)c23)CCCC5 [Example 43, 5-[2-(Dimethylamino)ethyl]-10,11,12,13-tetrahydro-4H-benzo[b]pyrimido[5,6,1-jk]carbazole-4,6(5H)-dione hydrochloride]
20 | 220 | CN(C)CCn1c(=O)c2cccc3c4c5c(ccc4n(c1=O)c23)OCO5 [Example 40, 8-[2-(Dimethylamino)ethyl]-7H-1,3-dioxolo[4,5-c]pyrimido [5,6,1-jk]carbazole-7,9(8H)-dione hydrochloride]
21 | 110 | CN(C)CCn1c(=O)c2cccc3c4c5occc(=O)c5ccc4n(c1=O)c23 [Example 16, 9-[2-(Dimethylamino)ethyl]-4H,8H-pyrano[3,2-c]pyrimido [5,6,1-jk]carbazole-4,8,10(9H)-trione hydrochloride]
22 | 74 | CN(C)CCn1c(=O)c2cccc3c4ccc5sccc5c4n(c1=O)c23 [Example 14, 2-[2-(Dimethylamino)ethyl]-1H-pyrimido[5,6,1-jk]thieno[3,2-a]carbazole-1,3(2H)-dione hydrochloride]
23 | 7.7 | CN(C)CCn1c(=O)c2cccc3c4c5c(ccc4n(c1=O)c23)C(=O)NCC5 [Example 39, 1,2-Dihydro-9-[2-(dimethylamino)ethyl]-8H-pyrido[3,4-c]pyrimido[5,6,1-jk]carbazole-4,8,10(3H,9H)-trione hydrochloride]
24 | 380 | CN(C)CCn1c(=O)c2cc([N+](=O)[O-])cc3c4c5ccccc5ccc4n(c1=O)c23 [Example 37, 5-[2-(Dimethylamino)ethyl]-2-nitro-4H-benzo[c]pyrimido [5,6,1-jk]carbazole-4,6(5H)-dione hydrochloride]
25 | 34 | CN(C)CCn1c(=O)c2cccc3c4ccc5occc5c4n(c1=O)c23 [Example 17, 2-[2-(Dimethylamino)ethyl]-1H-furo[3,2-a]pyrimido[5,6,1-jk]carbazole-1,3(2H)-dione hydrochloride]
26 | 155 | CN(C)CCn1c(=O)c2nc3ccccc3c3c4ccc5ccccc5c4n(c1=O)c23 [Example 58, 7-[2-(Dimethylamino)ethyl]-6H-benzo[c,i]pyrimido[1,6,5-lm]-β-carboline-6,8(7H)-dione]
27 | 320 | CN(C)CCn1c(=O)c2c3ccccc3nc3c4ccccc4n(c1=O)c32 [Example 24, 2-[2-(Dimethylamino)ethyl]-1H-benzo[b]pyrimido[1,6,5-lm]-4-azacarbazole-1,3(2H)-dione dihydrochloride]
28 | 31 | Cc1ccc2c(ccc3c2c2cccc4c(=O)n(CCN(C)C)c(=O)n3c42)n1 [Example 57, 9-[2-(Dimethylamino)ethyl]-3-methyl-8H-pyrido[2,3-c]pyrimido[5,6,1-jk]carbazole-8,10(9H)-dione dihydrochloride]
29 | 250 | CN(C)CCn1c(=O)c2cc(N)cc3c4c5ccccc5ccc4n(c1=O)c23 [Example 47, 2-Amino-5-[2-(dimethylamino)ethyl]-4H-benzo[c]pyrimido [5,6,1-jk]carbazole-4,6(5H)-dione dihydrochloride]
30 | 450 | CN(C)CCCCn1c(=O)c2cccc3c4c5ccccc5ccc4n(c1=O)c23 [Example 34, 5-[4-(Dimethylamino)butyl]-4H-benzo[c]pyrimido[5,6,1-jk]carbazole-4,6(5H)-dione hydrochloride]
31 | 71 | CN(C)CCn1c(=O)c2cccc3c4c5c(=O)[nH]ccc5ccc4n(c1=O)c23 [Example 29, 9-[2-(Dimethylamino)ethyl]-8H-pyrido[4,3-c]pyrimido[5,6,1-jk]carbazole-1,8,10(2H,9H)-trione hydrochloride]
32 | 220 | CN(C)CCCn1c(=O)c2cccc3c4c5ccccc5ccc4n(c1=O)c23 [Example 19, 5-[3-(Dimethylamino)propyl]-4H-benzo[c]pyrimido[5,6,1-jk]carbazole-4,6(5H)-dione hydrochloride]
